How the values were obtained:
COX-1 = molecular target: T1, COX-1 (Rattus norvegicus, UniProt Q63921); assay: Whole blood thromboxane B2 synthesis in treated rats; type: in vivo; details: same rats as FIG. 12/13
T1 construct: whole blood thromboxane synthesis, which occurs via COX-1; from tissue; host or cells: rat whole blood, ex vivo after oral dosing
T1 sequence (Q63921 27-602): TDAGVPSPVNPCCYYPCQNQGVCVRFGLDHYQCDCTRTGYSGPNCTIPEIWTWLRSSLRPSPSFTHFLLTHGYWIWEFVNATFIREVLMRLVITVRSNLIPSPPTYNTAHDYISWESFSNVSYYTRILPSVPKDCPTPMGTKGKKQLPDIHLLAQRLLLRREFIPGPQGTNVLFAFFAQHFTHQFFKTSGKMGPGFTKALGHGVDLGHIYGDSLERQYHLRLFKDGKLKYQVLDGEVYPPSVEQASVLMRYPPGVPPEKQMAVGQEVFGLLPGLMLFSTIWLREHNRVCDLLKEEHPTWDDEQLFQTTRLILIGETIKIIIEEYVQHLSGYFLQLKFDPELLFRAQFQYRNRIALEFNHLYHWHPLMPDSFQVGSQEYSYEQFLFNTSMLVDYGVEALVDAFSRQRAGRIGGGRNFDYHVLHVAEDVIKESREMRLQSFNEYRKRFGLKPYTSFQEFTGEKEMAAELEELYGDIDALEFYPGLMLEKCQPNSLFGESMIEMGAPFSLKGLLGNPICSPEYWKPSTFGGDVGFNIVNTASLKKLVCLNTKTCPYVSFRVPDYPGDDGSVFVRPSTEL
Method: Inhibition of COX-1 was also measured using the same rats. […] The samples were then centrifuged for 3 min at 9,000 g and the supernatant was frozen at −80° C. for subsequent measurement of thromboxane B2 concentrations using a specific ELISA.
Inhibition of COX-1 was also measured using the same rats, using the same method as described for FIG. 11.

TNBS-induced colitis = TNBS-induced colitis in mice (disease activity score, MPO activity); type: in vivo; details: oral 100 mg/kg every 12 h for 5 days
Method: A standard experimental animal model of colitis induced by intracolonic administration of 2,4,6-trinitrobenzene sulfonic acid (TNBS) to mice is used in the following example. A detailed description of this model has been published (Santucci et al. (2003) Gastroenterology 124:1381-94) and is incorporated herein by reference. Briefly, 6-8 week old Balb/c mice were given TNBS intracolonically at a dose of 1.5 mg in 0.1 mL of 30% ethanol. The mice were randomized to the various treatment groups (n=6 per group). Beginning one hour later and continuing every 12 h for 5 days, the mice were treated orally with vehicle (1% carboxymethylcellulose (CMC)), 5-ASA (mesalamine) alone (100 mg/kg), 4-hydroxythiobenzamide (referred to in the Figures as 4-HTB) (100 mg/kg), 5-amino-2-(4-thiocarbamoyl-phenoxycarbonyloxy)-benzoic acid (100 mg/kg) (referred to hereinafter as Compound XXVII) and equimolar doses of mesalamine (50 mg/kg) and (4-HTB) (50 mg/kg). *p<0.05 versus the vehicle-treated group. Each group consisted of at least 5 rats.
The mice were evaluated (blindly) on the final day of the study for the presence of diarrhea and fecal occult blood, and their body weights were measured. […] After sacrifice, a sample of the colon was excised for measurement of myeloperoxidase (MPO) activity, as a marker of granulocyte infiltration. All results were compared to those obtained with healthy mice as well.

[1] = tested on: leukocyte adherence to the vascular endothelium; assay: Aspirin-induced leukocyte adherence, intravital microscopy of mesenteric venules; type: in vivo, rat; details: FIG. 5
Method: Leukocyte adherence was studied using intravital microscopy, as described in detail previously (Wallace et al., (1993) Am. J. Physiol. 265: 993-998, incorporated hereto by reference). Rats were anesthetized with pentobarbital sodium (60 mg/kg i.p.) and cautery incisions were made along the abdominal region. A tracheotomy was performed to facilitate breathing. The rats were placed in a supine position, and a segment of the mesentery was exteriorized through the abdominal incision. The mesentery was carefully placed over an optically clear viewing pedestal that allowed for trans-illumination of a 2-cm^2 segment of tissue. All exposed tissue was covered with saline-soaked gauze to minimize dehydration. […] A video camera mounted on the microscope (Panasonic™ digital 5000) projected the image onto a monitor, and the images were recorded for playback analysis using a videocassette recorder. Images of the mesenteric microcirculation were recorded 5 minutes prior to aspirin administration (baseline), at the time of aspirin administration (time 0-5) and every 15 minutes for 60 minutes. Leukocyte adherence was blindly quantified from videotaped images of the vessels made over 5-min periods as the number of leukocytes that remained stationary along the vessel wall for 30 s or more (expressed per 100 μm venule length). […]

Molecule: NC(=S)c1ccc(O)cc1 [4-hydroxythiobenzamide]
- COX-1 activity (whole blood thromboxane synthesis) (COX-1): did not significantly affect COX-1 activity

Molecule: 5-amino-2-(4-thiocarbamoyl-phenoxycarbonyloxy)-benzoic acid [Compound XXVII]
- Disease Activity Score (TNBS-induced colitis; FIG. 1): almost three times as effective
- myeloperoxidase (MPO) activity (granulocyte infiltration) (TNBS-induced colitis; colon sample, FIG. 2): significantly reduced inflammation
- leukocyte adherence at 60-65 minutes ([1]; 100 mg/kg intragastrically 60 min prior to aspirin): suppress aspirin-induced leukocyte adherence
- leukocyte adherence at 60-65 minutes after glibenclamide pretreatment ([1]; glibenclamide 10 mg/kg i.p. 30 min prior, aspirin): reverse this inhibitor effect on leukocyte adherence
